Results as given in article PMC10866072, “Design, synthesis, molecular modelling and biological evaluation of novel 6-amino-5-cyano-2-thiopyrimidine derivatives as potent anticancer agents against leukemia and apoptotic inducers” (Journal of Enzyme Inhibition and Medicinal Chemistry, 2024).

Legend:
SN12C = assay type: cell-based, human; conditions: one dose 10^-5 M, 48 h
M14 = assay type: cell-based; conditions: one dose 10^-5 M, 48 h
HCT-116 = assay type: cell-based; conditions: one dose 10^-5 M, 48 h
MOLT-4 = assay type: cell-based; conditions: one dose 10^-5 M, 48 h
SNB-19 = assay type: cell-based; conditions: one dose 10^-5 M, 48 h
SK-MEL-28 = assay type: cell-based; conditions: one dose 10^-5 M, 48 h
SK-MEL-2 = assay type: cell-based; conditions: one dose 10^-5 M, 48 h
OVCAR-4 = assay type: cell-based; conditions: one dose 10^-5 M, 48 h
T-47D = assay type: cell-based; conditions: one dose 10^-5 M, 48 h
[1] = tested on: full NCI 60 cell lines panel; conditions: for activity on all 60 cancer cell lines tested (in words): one dose; for Mean % growth: one dose 10^-5 M, 48 h, mean over all cell lines
Protocol: 60 different human tumour cell lines-representing leukaemia, melanoma, and malignancies of the lung, colon, brain, ovary, breast, prostate, and kidney are used in the operation of this screen.
Compounds were dissolved in DMSO: glycerol (91) and were kept in a freezer at −70° C. The synthesised compounds were introduced to the culture at a single concentration of 1 0 ^−5 M and left to incubate for 48 h. A protein-binding dye called sulforhodamine B was used to measure end points (SRB).
A mean graph showing the % growth of treated cells is used to represent the one-dose data. The value provided for the One-dose assay represents growth in comparison to the no-drug control and to the number of cells at time zero. This enables the identification of lethality (values between 0 and 100) as well as growth inhibition (values less than 0). A value of 100, for instance, indicates no growth inhibition. A value of 40 would indicate 60% growth inhibition. A value of 0 indicates no net growth over the course of the experiment. A value of −40 would indicate 40% lethality.
Furthermore, the average sensitivity of all cell lines to the compound is termed as the full panel mean graph midpoints (MG-MID). The complete panel mean graph midpoints refers to the average sensitivity of all cell lines to the chemical (MG-MID). A measure of a compound’s selectivity for a given cell line is the ratio created by dividing the full panel mean graph midpoints (MG-MID) concentration by the individual subpanel MG-MID concentrations (obtained as the average sensitivity of all the cell lines in a given subpanel to the test compound).

HOP-92 = assay type: cell-based; conditions: one dose 10^-5 M, 48 h
HT29 = assay type: cell-based; conditions: one dose 10^-5 M, 48 h
HL-60(TB) = assay type: cell-based; conditions: one dose 10^-5 M, 48 h
MCF7 = assay type: cell-based; conditions: one dose 10^-5 M, 48 h
OVCAR-8 = assay type: cell-based; conditions: one dose 10^-5 M, 48 h
NCI-H460 = assay type: cell-based; conditions: one dose 10^-5 M, 48 h
OVCAR-5 = assay type: cell-based; conditions: one dose 10^-5 M, 48 h
EKVX = assay type: cell-based; conditions: one dose 10^-5 M, 48 h
SW-620 = assay type: cell-based; conditions: one dose 10^-5 M, 48 h
A498 = assay type: cell-based; conditions: one dose 10^-5 M, 48 h
MDA-MB-231/ATCC = assay type: cell-based; conditions: one dose 10^-5 M, 48 h
SNB-75 = assay type: cell-based; conditions: one dose 10^-5 M, 48 h
MDA-MB-468 = assay type: cell-based; conditions: one dose 10^-5 M, 48 h
SF-295 = assay type: cell-based; conditions: one dose 10^-5 M, 48 h
IGROV1 = assay type: cell-based; conditions: one dose 10^-5 M, 48 h
KM12 = assay type: cell-based; conditions: one dose 10^-5 M, 48 h
HOP-62 = assay type: cell-based; conditions: one dose 10^-5 M, 48 h
786-0 = assay type: cell-based; conditions: one dose 10^-5 M, 48 h
MDA-MB-435 = assay type: cell-based; conditions: one dose 10^-5 M, 48 h
TK-10 = assay type: cell-based; conditions: one dose 10^-5 M, 48 h
CAKI-1 = assay type: cell-based; conditions: one dose 10^-5 M, 48 h
UO-31 = assay type: cell-based; conditions: one dose 10^-5 M, 48 h
SK-MEL-5 = assay type: cell-based; conditions: one dose 10^-5 M, 48 h
DU-145 = assay type: cell-based; conditions: one dose 10^-5 M, 48 h
OVCAR-3 = assay type: cell-based; conditions: one dose 10^-5 M, 48 h
LOX IMVI = assay type: cell-based; conditions: one dose 10^-5 M, 48 h
NCI-H226 = assay type: cell-based; conditions: one dose 10^-5 M, 48 h
HCT-15 = assay type: cell-based; conditions: one dose 10^-5 M, 48 h
SR = assay type: cell-based; conditions: one dose 10^-5 M, 48 h
SF-539 = assay type: cell-based; conditions: one dose 10^-5 M, 48 h
UACC-257 = assay type: cell-based; conditions: one dose 10^-5 M, 48 h
K-562 = assay type: cell-based; conditions: one dose 10^-5 M, 48 h
PC-3 = assay type: cell-based; conditions: one dose 10^-5 M, 48 h
ACHN = assay type: cell-based; conditions: one dose 10^-5 M, 48 h
MALME-3M = assay type: cell-based; conditions: one dose 10^-5 M, 48 h
NCI-H23 = assay type: cell-based; conditions: one dose 10^-5 M, 48 h
HS 578T = assay type: cell-based; conditions: one dose 10^-5 M, 48 h; HS 578T
SF-268 = assay type: cell-based; conditions: one dose 10^-5 M, 48 h
NCI-H522 = assay type: cell-based; conditions: one dose 10^-5 M, 48 h
SK-OV-3 = assay type: cell-based; conditions: one dose 10^-5 M, 48 h
A549/ATCC = assay type: cell-based; conditions: one dose 10^-5 M, 48 h
U251 = assay type: cell-based; conditions: one dose 10^-5 M, 48 h
HCC-2998 = assay type: cell-based; conditions: one dose 10^-5 M, 48 h
UACC-62 = assay type: cell-based; conditions: one dose 10^-5 M, 48 h
CCRF-CEM = assay type: cell-based; conditions: one dose 10^-5 M, 48 h
RPMI-8226 = assay type: cell-based; conditions: one dose 10^-5 M, 48 h
RXF 393 = assay type: cell-based; conditions: one dose 10^-5 M, 48 h

3-Amino-4–(4-chlorophenyl)-1H-pyrazolo[3,4-d] pyrimidine-6-thiol [Compound 3b]
% growth (SN12C): 97.55% | % growth (M14): 107.99% | % growth (HCT-116): 102.04% | % growth (MOLT-4): 92.74% | % growth (SNB-19): 92.80% | % growth (SK-MEL-28): 107.34% | % growth (SK-MEL-2): 108.20% | % growth (OVCAR-4): 98.54% | % growth (T-47D): 86.49% | activity on all 60 cancer cell lines tested (in words) [1]: weak activity | Mean % growth [1]: 100.23% | % growth (HOP-92): 100.46% | % growth (HT29): 95.28% | % growth (HL-60(TB)): 82.04% | % growth (MCF7): 94.30% | % growth (OVCAR-8): 104.96% | % growth (NCI-H460): 107.05% | % growth (OVCAR-5): 108.35% | % growth (EKVX): 96.85% | % growth (SW-620): 102.78% | % growth (A498): 109.21% | % growth (MDA-MB-231/ATCC): 98.65% | % growth (SNB-75): 94.54% | % growth (MDA-MB-468): 106.46% | % growth (SF-295): 89.90% | % growth (IGROV1): 96.70% | % growth (KM12): 100.80% | % growth (HOP-62): 106.23% | % growth (786-0): 99.34% | % growth (MDA-MB-435): 98.24% | % growth (TK-10): 114.88% | % growth (CAKI-1): 93.47% | % growth (UO-31): 92.69% | % growth (SK-MEL-5): 95.82% | % growth (DU-145): 101.49% | % growth (OVCAR-3): 113.31% | % growth (LOX IMVI): 103.05% | % growth (NCI-H226): 107.48% | % growth (HCT-15): 103.06% | % growth (SR): 91.21% | % growth (SF-539): 98.83% | % growth (UACC-257): 106.44% | % growth (K-562): 94.65% | % growth (PC-3): 101.93% | % growth (ACHN): 102.63% | % growth (MALME-3M): 100.39% | % growth (NCI-H23): 103.30% | % growth (HS 578T): 111.10% | % growth (SF-268): 103.53% | % growth (NCI-H522): 84.30% | % growth (SK-OV-3): 106.45% | % growth (A549/ATCC): 100.87% | % growth (U251): 101.98% | % growth (HCC-2998): 100.20% | % growth (UACC-62): 100.93% | % growth (CCRF-CEM): 92.49% | % growth (RPMI-8226): 90.84% | % growth (RXF 393): 103.75%

4-Amino-6–(4-chlorophenyl)-2-mercaptopyrimidine-5-carboximidohydrazide [Compound 2b]
% growth (SN12C): 99.89% | % growth (M14): 111.66% | % growth (HCT-116): 119.61% | % growth (MOLT-4): 99.19% | % growth (SNB-19): 98.41% | % growth (SK-MEL-28): 108.56% | % growth (SK-MEL-2): 109.65% | % growth (OVCAR-4): 103.90% | % growth (T-47D): 96.25% | activity on all 60 cancer cell lines tested (in words) [1]: weak activity | Mean % growth [1]: 105.07% | % growth (HOP-92): 107.66% | % growth (HT29): 98.85% | % growth (HL-60(TB)): 98.64% | % growth (MCF7): 98.64% | % growth (OVCAR-8): 110.09% | % growth (NCI-H460): 107.93% | % growth (OVCAR-5): 103.26% | % growth (EKVX): 100.22% | % growth (SW-620): 103.87% | % growth (A498): 116.23% | % growth (MDA-MB-231/ATCC): 100.62% | % growth (SNB-75): 99.29% | % growth (MDA-MB-468): 102.27% | % growth (SF-295): 93.17% | % growth (IGROV1): 103.95% | % growth (KM12): 100.03% | % growth (HOP-62): 113.92% | % growth (786-0): 99.27% | % growth (MDA-MB-435): 96.65% | % growth (TK-10): 113.67% | % growth (CAKI-1): 99.31% | % growth (UO-31): 93.82% | % growth (SK-MEL-5): 100.02% | % growth (DU-145): 106.23% | % growth (OVCAR-3): 112.26% | % growth (LOX IMVI): 109.11% | % growth (NCI-H226): 121.25% | % growth (HCT-15): 103.81% | % growth (SR): 81.00% | % growth (SF-539): 103.32% | % growth (UACC-257): 114.55% | % growth (K-562): 98.62% | % growth (PC-3): 111.23% | % growth (ACHN): 102.02% | % growth (MALME-3M): 109.72% | % growth (NCI-H23): 107.36% | % growth (HS 578T): 128.54% | % growth (SF-268): 108.46% | % growth (NCI-H522): 98.92% | % growth (SK-OV-3): 123.58% | % growth (A549/ATCC): 110.21% | % growth (U251): 105.90% | % growth (HCC-2998): 105.50% | % growth (UACC-62): 100.76% | % growth (CCRF-CEM): 100.09% | % growth (RPMI-8226): 94.54% | % growth (RXF 393): 119.00%
